According to patent publication US8318792B2, “Therapeutic agent for amyotrophic lateral sclerosis” (Nippon Medical School Foundation, priority 2006, dated 2012):

How the values were obtained:
Type in all cases: in vivo, mouse
G1H-G93A transgenic mice [1] = assay: Exercise tolerance test: beam balance test; settings: 5 mg/kg oral daily from 80th day (before onset), score 0-2
Procedure: (§1) The following five kinds of exercise tolerance tests were conducted every fifth day from the 70th day after birth to evaluate the ability to exercise in the respective exercise tolerance tests. That is, the days for the exercise tolerance tests were every fifth days, such as the 70th day, 75th day, 80th day, 85th day and so on, after birth. The exercise tolerance tests were conducted throughout the survival period, and the post-mortem evaluation was based on the definitions of the following five kinds of exercise tolerance tests.
The apparatus used in the beam balance test is constructed by maintaining a wooden beam having a diameter of 1.5 cm horizontally, and installing platforms which serve as footholds, on the respective sides in a distance of 30 cm. A mouse is placed on the platform on one side, and the time taken by the mouse to cross over the beam which is 30 cm in length and to arrive at the platform on the opposite side is measured. The evaluation of the beam balance test for the mouse was performed based on the following criteria: Score 0=The time is 10 seconds or less; Score 1=The time is more than 10 seconds to 15 seconds; and Score 2=The time is more than 15 seconds, or the mouse falls down. The post-mortem evaluation of the beam balance test is defined as score 2.

G1H-G93A transgenic mice [2] = assay: Histopathological study: number of spinal cord anterior horn cells; settings: end stage, 5 mg/kg oral daily from 80th day after birth (before onset)
Procedure: The mouse supplied to the experiment is anesthetized by intraperitoneal injection of pentobarbital sodium in an amount of 1 mL per kg of the mouse body weight. After confirming that the mouse is completely under anesthesia, laparotomy and thoracotomy are performed, and blood is completely removed from the visceral organs of the whole body by perfusion of physiological saline at 37° C. via the left ventricle and aorta. The complete removal of blood from the visceral organs of the whole body is carried out by confirming complete removal of the blood of the aorta in the thoracic part and abdominal part, mesenteric arteries, liver, kidneys, and small arteries on the surfaces of the stomach, small intestine and large intestine under direct visual inspection. Subsequently, perfusion of 50 mL of physiological saline at 37° C. is performed. Immediately thereafter, the perfusion is performed with a fixative (4% paraformaldehyde supplemented with 0.1 M cacodylate buffer, pH 7.4). The spinal cord is removed and re-fixed with the same fixative for 18 hours. After the fixation of spinal cord tissue, each spinal cord segments is cut out to examine the spinal cord tissue. For the detailed analyses of spinal cord tissues, two segments of the cervical spinal cord (upper and lower cervical segments), three segments of the thoracic spinal cord (upper, middle, and lower thoracic segments), and two segments of lumbar spinal cord (upper and lower lumbar segments) were cut out to provide seven segments in total. Each spinal cord segments are respectively embedded in paraffin to produce paraffin blocks, and then cut into paraffin sections having a thickness of 5 μm using a microtome. The paraffin sections are subjected to hematoxylin and eosin (HE) staining.
For a quantitative analysis, serial 25 paraffin sections having a thickness of 5 μm were produced in series from the respective segment paraffin blocks of the spinal cord, and the 1st section, 7th section, 13th section, 19th section and 25th section were selected and subjected to HE staining. Specifically, paraffin sections were selected such that one paraffin section was taken at a […], and 5 HE preparations were produced from a single spinal cord segments. Therefore, 10 HE preparations from two areas for the entire cervical spinal cord, 15 HE preparations from three areas for the entire thoracic spinal cord, and 10 HE preparations from two areas for the entire lumbar spinal cord, were produced.
In order to calculate the number of motor neurons in the anterior horn, all of the HE stained sections were observed under a light microscope (BX41: Olympus Corp., Tokyo, Japan) equipped with a 3CCD digital color camera system for the microscope (FX380: Olympus Corp., Tokyo, Japan). Subsequently, photographs of the anterior horn region (corresponding to VII, VIII and IX Rexed areas) in the HE stained sections of the respective myelomere tissues of the spinal cord were taken, and the images were analyzed using an image analysis-filing software (FLVFS-LS Ver. 1.12: Olympus Corp., Tokyo, Japan). In regard to the definition of the motor neuron in the anterior horn of spinal cord (spinal cord anterior horn cells), cells in the HE stained sections, which have a nucleus carrying a definite nucleolus and contain a cell body having a diameter of 25 μm or more, were selected as the spinal cord anterior horn cells (Klivenyi P, et al., Nature Med 1999; 5:347-351, Kong J & Xu Z, J Neurosci 1998; 18:3241-3250, and Stephens B, et al., Neuropathol Appl Neurobiol 2001; 27:352-361). Based on this definition, the number of spinal cord anterior horn cells was counted for each of the HE stained sections. The respective numbers of spinal cord anterior horn cells in the cervical spinal cord, thoracic spinal cord and lumbar spinal cord of one mouse was calculated from the total number of spinal cord anterior horn cells in five HE stained sections. […]

G1H-G93A transgenic mice [3] = assay: Exercise tolerance test: footprint test; settings: 5 mg/kg oral daily from 80th day (before onset), score 0-4
Procedure: as §1
Both hindlimbs of a mouse are dipped in a black ink bottle, and then the mouse is allowed to walk on white paper. The footprints of the two hindlimbs of the mouse after the walking are analyzed. […] The post-mortem evaluation of the footprint test is defined as score 4.

[4] = per five HE sections, average±SD

SMILES: Cc1nc(-c2ccc(OCC(C)C)c(C#N)c2)sc1C(=O)O [compound (c), 2-[3-cyano-4-(2-methylpropoxy)phenyl]-4-methyl-5-thiazolecarboxylic acid]
- Beam balance test score (G1H-G93A transgenic mice [1]; 70th day after birth, 5 mg/kg): 0.0±0.0
- Beam balance test score (G1H-G93A transgenic mice [1]; 75th day after birth, 5 mg/kg): 0.0±0.0
- Beam balance test score (G1H-G93A transgenic mice [1]; 80th day after birth, 5 mg/kg): 0.0±0.0
- Beam balance test score (G1H-G93A transgenic mice [1]; 85th day after birth, 5 mg/kg): 0.0±0.0
- Beam balance test score (G1H-G93A transgenic mice [1]; 90th day after birth, 5 mg/kg): 0.0±0.0
- Beam balance test score (G1H-G93A transgenic mice [1]; 95th day after birth, 5 mg/kg): 0.0±0.0
- Beam balance test score (G1H-G93A transgenic mice [1]; 100th day after birth, 5 mg/kg): 0.0±0.0
- Beam balance test score (G1H-G93A transgenic mice [1]; 105th day after birth, 5 mg/kg): 0.0±0.0
- Beam balance test score (G1H-G93A transgenic mice [1]; 110th day after birth, 5 mg/kg): 0.1±0.3
- Beam balance test score (G1H-G93A transgenic mice [1]; 115th day after birth, 5 mg/kg): 0.7±0.8
- Beam balance test score (G1H-G93A transgenic mice [1]; 120th day after birth, 5 mg/kg): 1.4±0.7
- Beam balance test score (G1H-G93A transgenic mice [1]; 125th day after birth): 2.0 ± 0.0
- Beam balance test score (G1H-G93A transgenic mice [1]; 130th day after birth): 2.0 ± 0.0
- Beam balance test score (G1H-G93A transgenic mice [1]; 135th day after birth): 2.0 ± 0.0
- Beam balance test score (G1H-G93A transgenic mice [1]; 140th day after birth): 2.0 ± 0.0
- Beam balance test score (G1H-G93A transgenic mice [1]; from the 125th day to 140th day after birth): 2.0±0.0
- difference to placebo group in number of spinal cord anterior horn cells (cervical, thoracic or lumbar segment) (G1H-G93A transgenic mice [2]; P>0.05, Mann-Whitney's U test): no significant difference
- number of spinal cord anterior horn cells in the cervical segment (G1H-G93A transgenic mice [2]; [4]): 5.2±4.3
- number of spinal cord anterior horn cells in the lumbar segment (G1H-G93A transgenic mice [2]; [4]): 4.1±3.8
- number of spinal cord anterior horn cells in the thoracic segment (G1H-G93A transgenic mice [2]; [4]): 1.6±1.7
- Footprint test score (G1H-G93A transgenic mice [3]; 70th day after birth): 0.0±0.0
- Footprint test score (G1H-G93A transgenic mice [3]; 75th day after birth): 0.0±0.0
- Footprint test score (G1H-G93A transgenic mice [3]; 80th day after birth): 0.0±0.0
- Footprint test score (G1H-G93A transgenic mice [3]; 85th day after birth): 0.0±0.0
- Footprint test score (G1H-G93A transgenic mice [3]; 90th day after birth): 0.0±0.0
- Footprint test score (G1H-G93A transgenic mice [3]; 95th day after birth): 0.0±0.0
- Footprint test score (G1H-G93A transgenic mice [3]; 100th day after birth): 0.0±0.0
- Footprint test score (G1H-G93A transgenic mice [3]; 105th day after birth): 0.0±0.0
- Footprint test score (G1H-G93A transgenic mice [3]; 110th day after birth): 0.1±0.3
- Footprint test score (G1H-G93A transgenic mice [3]; 115th day after birth): 0.7±0.8
- Footprint test score (G1H-G93A transgenic mice [3]; 120th day after birth): 1.6±1.0
- Footprint test score (G1H-G93A transgenic mice [3]; 125th day after birth): 2.7±0.5
- Footprint test score (G1H-G93A transgenic mice [3]; 130th day after birth): 3.3±0.5
- Footprint test score (G1H-G93A transgenic mice [3]; 135th day after birth): 3.9±0.3
- Footprint test score (G1H-G93A transgenic mice [3]; 140th day after birth): 4.0±0.0
